The source of these data is ChEMBL document CHEMBL1201862, “PubChem BioAssay data set” (2004).

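Protocol summary: plate cells (96-well), add compound at 5 concentrations, incubate 48 h, interpolate endpoints linearly. At the GI50, growth is halved.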 Active and inactive are the calls of the source. No stated cut-off is given here; in the data, active = GI50 up to about 1.1 µM and inactive = higher. Where only a bound is given, the exact number is not on record here.

Common to all, as to experiment: NCI tumour cell line growth inhibition, 48 h
Assay [1] concerns 786-0.
Assay [2] has as its system CCRF-CEM.
The subject of assay [3] is HCT-116.
In assay [4] the test system is HCT-15.
Assay [5] has as its system HOP-62.
Assay [6] relates to HOP-92.
Assay [7] relates to K562.
Assay [8] has as its system MOLT-4.
The test system of assay [9] is Malme-3M.
For assay [10], the system named is NCI-H226.
Assay [11] concerns NCI-H23.
The subject of assay [12] is OVCAR-8.
Assay [13] deals with SF-295.
The test system of assay [14] is SF-539.
The subject of assay [15] is SK-MEL-28.
The test system of assay [16] is SK-MEL-5.
The subject of assay [17] is SNB-19.
For assay [18], the system named is SNB-75.
Assay [19] concerns UACC-257.

In the case of `COc1cc2ccnc(-c3n[nH]c4cc(OC)c(OC)cc34)c2cc1OC`, the GI50 in assay [1] is > 100 µM (inactive); in assay [2], > 100 µM (inactive); in assay [3] it was > 100 µM (inactive); in assay [4] it was above 100 µM; in assay [5], > 100 µM (inactive); in [6], > 100 µM (inactive). In addition, the GI50 in assay [7], in [8], in assay [9], in assay [10], in assay [11] and in assay [12] was > 100 µM (inactive) in each case. Moreover, the GI50 in assay [13], in assay [14], in assay [15], in assay [16], in assay [17] and in assay [18] was > 100 µM (inactive) in each case. For the same compound, the GI50 in [19] is > 100 µM (inactive).

Regarding `CC(=O)/C(=N\O)C(=O)NCCc1ccccc1`, the GI50 in assay [1] was 68.2 µM (inactive); in assay [2], 76.4 µM (inactive); in [3], 46 µM (inactive); in assay [4], 41.1 µM; in assay [5] it was > 100 µM (inactive); in assay [6] it was > 100 µM (inactive). The GI50 was 68.7 µM (inactive) in [7]; > 100 µM (inactive) in assay [8]; > 100 µM (inactive) in assay [9]; > 100 µM (inactive) in assay [10]; > 100 µM (inactive) in assay [11]; > 100 µM (inactive) in assay [12]. Besides, the GI50 in assay [13], in assay [14], in [15], in [16], in assay [17] and in assay [18] was > 100 µM (inactive) each time. Further, the GI50 in assay [19] was 57.7 µM (inactive).

For the compound `O=C(c1nc2ccccc2nc1O)C(O)c1ccco1` (stereo unspecified), the GI50 in [1] is > 100 µM (inactive); in assay [2] it was > 100 µM (inactive); in assay [3] it was > 100 µM (inactive); in [4] it was 51.8 µM; in assay [5], > 100 µM (inactive); in assay [6] it was > 100 µM (inactive). Further, the GI50 in assay [7], in assay [8], in assay [9], in assay [10], in [11] and in [12] was > 100 µM (inactive) each time. Further, the GI50 in assay [13] was > 100 µM (inactive); in assay [14], > 100 µM (inactive); in assay [15], > 100 µM (inactive); in assay [16] it was 64.1 µM (inactive); in assay [17] it was > 100 µM (inactive); in [18], 45.8 µM (inactive). In addition, the GI50 in assay [19] was > 100 µM (inactive).

In the case of `Cc1ccc(-c2n[nH]c(CC#N)n2)cc1`, the GI50 in [1] was > 100 µM (inactive); in assay [2], > 100 µM (inactive); in [3], > 100 µM (inactive); in assay [4], 66.1 µM; in assay [5], > 100 µM (inactive); in assay [6], > 100 µM (inactive). The GI50 in assay [7], in assay [8], in [9], in assay [11], in assay [12] and in [13] was > 100 µM (inactive) throughout. For the same compound, the GI50 in assay [14] was > 100 µM (inactive); in [15], > 100 µM (inactive); in assay [16], > 100 µM (inactive); in assay [17], 0.608 µM (active); in [18], > 100 µM (inactive); in assay [19], > 100 µM (inactive).

Consider `CCOC(=O)CCCO`, for which the GI50 in assay [1] was > 100 µM (inactive); in assay [2], > 100 µM (inactive); in assay [3] it was > 10 µM (inactive); in assay [4], above 100 µM; in assay [6] it was > 100 µM (inactive); in [7] it was > 100 µM (inactive). Besides, the GI50 in assay [8], in assay [9], in assay [11], in [12], in assay [13] and in assay [14] was > 100 µM (inactive) in each case. The GI50 in assay [15] was > 100 µM (inactive); in assay [16], > 100 µM (inactive); in [17], > 100 µM (inactive); in assay [18], 71.3 µM (inactive); in [19], > 100 µM (inactive).

With `CSCSSC`, the GI50 in [1] is > 100 µM (inactive); in assay [2] it was 40.6 µM (inactive); in assay [3], > 100 µM (inactive); in assay [5], > 100 µM (inactive); in [6] it was > 75.5 µM (inactive); in [7] it was 95.3 µM (inactive). The GI50 in [8] was 4.67 µM (inactive); in assay [9], 77.1 µM (inactive); in assay [10], > 100 µM (inactive); in assay [11], > 83 µM (inactive); in [12], > 100 µM (inactive); in assay [13], > 100 µM (inactive). The GI50 in assay [14] was > 100 µM (inactive); in [15], > 57.3 µM (inactive); in assay [16], > 100 µM (inactive); in assay [17], > 100 µM (inactive); in assay [18], 52.1 µM (inactive); in [19], > 100 µM (inactive).

Turning to `Cn1cnc([N+](=O)[O-])c1Sc1nnc(-c2ccc(Cl)cc2)n1C`, the GI50 was > 10 µM (inactive) in assay [1]; 3.69 µM (inactive) in assay [2]; 13.1 µM (inactive) in assay [3]; > 100 µM (inactive) in [5]; 12.1 µM (inactive) in assay [6]; 10.7 µM (inactive) in [7]. Besides, the GI50 was 6.78 µM (inactive) in assay [8]; 10.6 µM (inactive) in assay [9]; 21.2 µM (inactive) in [10]; 16.6 µM (inactive) in assay [11]; 17.5 µM (inactive) in [12]; 50 µM (inactive) in assay [13]. The GI50 in [14] was 16.2 µM (inactive); in assay [15] it was 14.2 µM (inactive); in [17], 98.2 µM (inactive); in [18], 17.7 µM (inactive); in assay [19] it was 12.7 µM (inactive).

Regarding `N[C@@H]1CCN(c2c(F)cc3c(=O)c(C(=O)O)cn4c3c2Oc2c-4ccc3c2ccc2ccccc23)C1`, the GI50 in assay [1] was 0.412 µM (active); in assay [3], 1.08 µM (active); in assay [4], 1.96 µM; in assay [5], 1.38 µM (inactive); in assay [6], 2.13 µM (inactive); in [7], 3.1 µM (inactive). The GI50 in assay [8] was 4 µM (inactive); in [10] it was 19.9 µM (inactive); in assay [11] it was 3.1 µM (inactive); in [12], 1.38 µM (inactive); in [13], 1.92 µM (inactive); in [14] it was 3.01 µM (inactive). Besides, the GI50 is > 100 µM (inactive) in assay [15], 1.44 µM (inactive) in [16], 0.344 µM (active) in assay [17] and 5.42 µM (inactive) in [19].

Take `Cc1cc(C(C)C)cc(=O)c(O)c1`: the GI50 is > 100 µM (inactive) in assay [1]; > 100 µM (inactive) in assay [2]; > 100 µM (inactive) in assay [3]; above 100 µM in assay [4]; > 100 µM (inactive) in assay [5]; > 100 µM (inactive) in assay [6]. Besides, the GI50 in assay [8], in [9], in [10], in [12], in assay [13] and in assay [14] was > 100 µM (inactive) in each case. Moreover, the GI50 in [15], in assay [16], in assay [17], in assay [18] and in [19] was > 100 µM (inactive) each time.

Turning to `CCN1C(=O)C(N=[N+]=[N-])(c2ccccc2)C(=O)c2ccccc21` (stereo unspecified), the GI50 is > 100 µM (inactive) in assay [1]; 55.1 µM (inactive) in assay [2]; 61.8 µM (inactive) in assay [3]; 59.2 µM in assay [4]; > 100 µM (inactive) in assay [5]; 31.4 µM (inactive) in [6]. The GI50 in [7] is 39 µM (inactive); in assay [8] it was 43.1 µM (inactive); in assay [9], 67 µM (inactive); in assay [10], 46.7 µM (inactive); in [11] it was 57.1 µM (inactive); in assay [13] it was 60.3 µM (inactive). The GI50 in [14] was > 100 µM (inactive); in assay [15], > 100 µM (inactive); in assay [16], 56.5 µM (inactive); in assay [17], > 100 µM (inactive); in assay [18], 83 µM (inactive); in [19] it was 46.6 µM (inactive).

As for `COc1ccc(CN2C(=O)C(Cc3cc(OC)c(OC)c(C)c3OC)N(C(=O)OC(C)C)C(=O)/C2=C/c2cc(OC)c(OC)c(C)c2OC)cc1` (stereo unspecified), the GI50 in assay [1] is > 100 µM (inactive); in assay [2], 59.6 µM (inactive); in assay [3], 66.2 µM (inactive); in assay [5], > 100 µM (inactive); in [6], > 100 µM (inactive); in assay [7], 41 µM (inactive). For the same compound, the GI50 was 5.94 µM (inactive) in [8]; 64.9 µM (inactive) in [9]; 14.8 µM (inactive) in assay [10]; > 100 µM (inactive) in [11]; > 100 µM (inactive) in [12]; > 100 µM (inactive) in assay [13]. For the same compound, the GI50 was > 100 µM (inactive) in assay [14]; > 100 µM (inactive) in [15]; 46.8 µM (inactive) in assay [16]; > 100 µM (inactive) in assay [17]; 83.8 µM (inactive) in [18]; 48 µM (inactive) in assay [19].
